Source: ChEMBL document CHEMBL1201862, “PubChem BioAssay data set” (2004)
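How tested: cells in 96-well plates exposed to compound for 48 hours at five concentrations. GI50 is the concentration that inhibits growth by half.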 Active and inactive are the calls of the source. No stated cut-off is given here; in the data, active = GI50 up to about 1.1 µM and inactive = higher.

Assays:
Assay in all cases: NCI-60 cell line screen, 48 h
786-0 = system: 786-0
EKVX = system: EKVX
HOP-62 = system: HOP-62
HT-29 = system: HT-29
K562 = system: K562
NCI-H226 = system: NCI-H226
OVCAR-3 = system: OVCAR-3
OVCAR-4 = system: OVCAR-4
OVCAR-5 = system: OVCAR-5
RXF 393 = system: RXF 393
SF-295 = system: SF-295
SF-539 = system: SF-539
SK-MEL-2 = system: SK-MEL-2
SK-MEL-5 = system: SK-MEL-5
SNB-19 = system: SNB-19
SNB-75 = system: SNB-75
SR = system: SR
UACC-257 = system: UACC-257
MDA-MB-231 = system: MDA-MB-231
MDA-N = system: MDA-N

SMILES	GI50 (786-0)	GI50 (EKVX)	GI50 (HOP-62)	GI50 (HT-29)	GI50 (K562)	GI50 (NCI-H226)	GI50 (OVCAR-3)	GI50 (OVCAR-4)	GI50 (OVCAR-5)	GI50 (RXF 393)	GI50 (SF-295)	GI50 (SF-539)	GI50 (SK-MEL-2)	GI50 (SK-MEL-5)	GI50 (SNB-19)	GI50 (SNB-75)	GI50 (SR)	GI50 (UACC-257)	GI50 (MDA-MB-231)	GI50 (MDA-N)
Cc1cccc2c1c1ccc3c(c1n2C)C(=O)C=CC3=O	1.94 µM (inactive)	18.9 µM (inactive)	19 µM (inactive)	3.47 µM (inactive)	1.95 µM (inactive)	17.3 µM (inactive)	2.05 µM (inactive)	11.8 µM (inactive)	15.9 µM (inactive)	3.48 µM (inactive)	16.3 µM (inactive)	4.56 µM (inactive)	15.6 µM (inactive)	14.8 µM (inactive)	16.7 µM (inactive)	19.5 µM (inactive)	1.43 µM (inactive)	11.4 µM (inactive)	–	–
CC1(Cc2cc3c(cc2C2(c4ccc([N+](=O)[O-])cc4)OCCO2)OCO3)OCCO1	> 100 µM (inactive)	> 100 µM (inactive)	> 100 µM (inactive)	> 100 µM (inactive)	61.9 µM (inactive)	45 µM (inactive)	69.2 µM (inactive)	50.2 µM (inactive)	> 100 µM (inactive)	86.1 µM (inactive)	> 100 µM (inactive)	> 100 µM (inactive)	68.4 µM (inactive)	41.7 µM (inactive)	> 100 µM (inactive)	–	–	90.4 µM (inactive)	52.6 µM (inactive)	> 100 µM (inactive)
O=C(Nc1ccccc1C(=O)NCc1ccccc1)/C(=C/c1ccccc1)NC(=O)c1ccccc1	47.6 µM (inactive)	> 100 µM (inactive)	> 100 µM (inactive)	> 100 µM (inactive)	> 100 µM (inactive)	> 100 µM (inactive)	> 100 µM (inactive)	49.3 µM (inactive)	> 100 µM (inactive)	> 100 µM (inactive)	> 100 µM (inactive)	> 100 µM (inactive)	> 100 µM (inactive)	> 100 µM (inactive)	> 100 µM (inactive)	92.7 µM (inactive)	> 100 µM (inactive)	> 100 µM (inactive)	> 100 µM (inactive)	–
C[C@]12CC[C@H](O)CC1=CC[C@@H]1C2CC[C@]2(C)C(=O)NC(=O)CC12 (some centres undefined)	55.5 µM (inactive)	> 100 µM (inactive)	> 100 µM (inactive)	82.2 µM (inactive)	29 µM (inactive)	> 100 µM (inactive)	> 100 µM (inactive)	> 100 µM (inactive)	> 100 µM (inactive)	> 100 µM (inactive)	> 100 µM (inactive)	> 100 µM (inactive)	64.7 µM (inactive)	> 100 µM (inactive)	> 100 µM (inactive)	> 100 µM (inactive)	37.2 µM (inactive)	> 100 µM (inactive)	–	–
C=C(c1ccccc1)[C@@]1(O)CCCC[C@H]1NC(c1ccccc1)c1ccccc1	12.7 µM (inactive)	15.3 µM (inactive)	15.1 µM (inactive)	11.7 µM (inactive)	7.69 µM (inactive)	6.97 µM (inactive)	12.1 µM (inactive)	14.1 µM (inactive)	13.6 µM (inactive)	7.89 µM (inactive)	12.1 µM (inactive)	15.9 µM (inactive)	13.3 µM (inactive)	9.51 µM (inactive)	15.7 µM (inactive)	28.2 µM (inactive)	1.7 µM (inactive)	10.5 µM (inactive)	–	–
O=C1CC(=O)c2c(N3CCCC3)sc(N3CCCC3)c21	> 100 µM (inactive)	> 100 µM (inactive)	> 100 µM (inactive)	> 100 µM (inactive)	57.4 µM (inactive)	> 100 µM (inactive)	> 100 µM (inactive)	> 100 µM (inactive)	> 100 µM (inactive)	> 100 µM (inactive)	> 100 µM (inactive)	> 100 µM (inactive)	> 100 µM (inactive)	> 100 µM (inactive)	> 100 µM (inactive)	> 100 µM (inactive)	> 100 µM (inactive)	> 100 µM (inactive)	–	> 100 µM (inactive)
COC(=O)C1(C)CC2C(C)(CCC3(C)C4=CC=C5C(=CC(=O)C(O)=C5C)C4(C)CCC23C)CC1O (centres undefined)	0.226 µM (active)	1.3 µM (inactive)	1.86 µM (inactive)	0.634 µM (active)	0.284 µM (active)	2.12 µM (inactive)	0.774 µM (active)	1.61 µM (inactive)	1.73 µM (inactive)	0.429 µM (active)	1.78 µM (inactive)	1.1 µM (active)	1.68 µM (inactive)	1.66 µM (inactive)	1.59 µM (inactive)	1.92 µM (inactive)	0.203 µM (active)	1.72 µM (inactive)	0.577 µM (active)	–
